Laboratory results taken from PMC12446779, “Structural basis of transglucosylation in dextran dextrinase, a homolog of anomer-inverting GH15 glucoside hydrolases” (The Journal of Biological Chemistry, 2025).

Legend:
Δ382C (DDase-Δ382C) [1] = target: T1, Δ382C (DDase-Δ382C) (Gluconobacter oxydans, UniProt A0A0M5MSC0, E858S); assay: glycosynthase reaction, isomaltotetraose formation by HPAEC-PAD; format: biochemical; details: 12.5 mM donor, 50 mM isomaltotriose acceptor, 130 mM sodium acetate pH 4.2, 35 °C
T1 construct: gene HKD20_12845; C-terminal truncation Met1-Ser902 (domains N1, N2, HLH, A); N-terminal His6 tag (MNHKVHHHHHHIEGRHMEL) kept; E. coli BL21-CodonPlus(DE3)-RIL; 921 residues with tag; dimer 195,604 Da

Δ382C (DDase-Δ382C) [2] = target: T2, Δ382C (DDase-Δ382C) (Gluconobacter oxydans, UniProt A0A0M5MSC0, E858A); assay: as above; format: biochemical; details: 12.5 mM donor, 50 mM isomaltotriose acceptor, 130 mM sodium acetate pH 4.2, 35 °C
T2 construct: gene HKD20_12845; C-terminal truncation Met1-Ser902 (domains N1, N2, HLH, A); N-terminal His6 tag (MNHKVHHHHHHIEGRHMEL) kept; E. coli BL21-CodonPlus(DE3)-RIL; 921 residues with tag; dimer 195,604 Da
T2 sequence (A0A0M5MSC0 entry or part of it E858A): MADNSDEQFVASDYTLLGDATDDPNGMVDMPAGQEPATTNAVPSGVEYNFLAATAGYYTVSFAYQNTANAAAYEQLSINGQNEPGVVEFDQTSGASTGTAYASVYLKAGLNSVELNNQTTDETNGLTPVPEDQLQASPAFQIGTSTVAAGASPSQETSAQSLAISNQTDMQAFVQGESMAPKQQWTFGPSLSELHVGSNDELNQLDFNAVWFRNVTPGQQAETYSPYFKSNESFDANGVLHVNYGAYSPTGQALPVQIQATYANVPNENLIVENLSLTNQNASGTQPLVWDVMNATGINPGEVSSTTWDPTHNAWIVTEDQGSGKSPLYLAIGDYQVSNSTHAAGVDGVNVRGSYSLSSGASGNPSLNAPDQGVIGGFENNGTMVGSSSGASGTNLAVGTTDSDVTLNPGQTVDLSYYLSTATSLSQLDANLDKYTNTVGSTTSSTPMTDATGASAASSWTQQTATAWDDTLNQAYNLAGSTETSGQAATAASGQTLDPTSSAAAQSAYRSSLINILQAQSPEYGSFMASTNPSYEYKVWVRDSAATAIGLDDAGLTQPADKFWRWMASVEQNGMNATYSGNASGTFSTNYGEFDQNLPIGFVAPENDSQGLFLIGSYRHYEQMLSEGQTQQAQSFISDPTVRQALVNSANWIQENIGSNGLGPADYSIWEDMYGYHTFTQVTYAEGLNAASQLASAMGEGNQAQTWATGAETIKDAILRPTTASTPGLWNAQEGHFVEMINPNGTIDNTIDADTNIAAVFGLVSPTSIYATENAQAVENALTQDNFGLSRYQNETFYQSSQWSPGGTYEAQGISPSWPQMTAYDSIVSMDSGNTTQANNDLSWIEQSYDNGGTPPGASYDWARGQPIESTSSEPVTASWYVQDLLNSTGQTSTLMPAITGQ

T1 sequence (A0A0M5MSC0 entry or part of it E858S): as the sequence (A0A0M5MSC0 entry or part of it E858A) above, with A858S counted along it

In the case of `OC[C@H]1O[C@@H](F)[C@H](O)[C@@H](O)[C@@H]1O` [β-GF, β-D-glucosyl fluoride], the “glycosynthase reaction, isomaltotetraose formation by HPAEC-PAD” value (Δ382C (DDase-Δ382C) [1]) is reported as “isomaltotetraose (IG4) was produced from β-D-glucosyl fluoride (β-GF) and IG3 by E858A and E858S” and the “glycosynthase reaction, isomaltotetraose formation by HPAEC-PAD” value (Δ382C (DDase-Δ382C) [2]) is reported as “isomaltotetraose (IG4) was produced from β-D-glucosyl fluoride (β-GF) and IG3 by E858A and E858S”.
